According to US20100298141A1, “SUBSTITUTED PYRIDINE N-OXIDE HERBICIDES” (E. I. DU PONT DE NEMOURS AND COMPANY, priority 2007, published 2010):

Key:
barnyardgrass = assay: Test A pre-/postemergence greenhouse test; type: in vivo, Echinochloa crus-galli; details: for Barnyardgrass plant response rating: 0 to 100 scale
How it was run: (§1)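 Planting was into mixed loam soil and sand; preemergence treatment followed as a directed soil spray. Concurrently, emerged plants (one- to two-leaf, 2–10 cm) received postemergence applications of identically formulated compound (non-phytotoxic solvent, surfactant). After approximately ten days under greenhouse conditions, injury was judged by eye against untreated plants.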

giant foxtail = assay: Test A pre-/postemergence greenhouse test; type: in vivo, Setaria faberi; details: for Foxtail, Giant plant response rating: 0 to 100 scale
How it was run: as §1

morningglory = assay: Test A pre-/postemergence greenhouse test; type: in vivo, Ipomoea spp.; details: for Morningglory plant response rating: 0 to 100 scale
How it was run: as §1

redroot pigweed = assay: Test A pre-/postemergence greenhouse test; type: in vivo, Amaranthus retroflexus; details: for Pigweed plant response rating: 0 to 100 scale
How it was run: as §1

wheat [1] = assay: Test A pre-/postemergence greenhouse test; type: in vivo, Triticum aestivum; details: for Wheat plant response rating: 0 to 100 scale
How it was run: as §1

corn = assay: Test A pre-/postemergence greenhouse test; type: in vivo, Zea mays; details: for Corn plant response rating: 0 to 100 scale
How it was run: as §1

wheat [2] = assay: Test C pre-/postemergence test; type: in vivo, Triticum aestivum; details: for Wheat plant response rating: preemergence, scale 0 (no effect) to 100 (complete control)
How it was run: (§2)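 Compounds in a non-phytotoxic solvent with surfactant applied preemergence to seeded pots and, at the same time, postemergence to plants 2–18 cm tall (1- to 4-leaf stage). Paddy tests: pots flooded to 3 cm, compound applied into the water, depth held throughout.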

bermudagrass = assay: Test C pre-/postemergence test; type: in vivo, Cynodon dactylon
How it was run: as §2

Surinam grass = assay: Test C pre-/postemergence test; type: in vivo, Brachiaria decumbens; details: for Surinam Grass plant response rating: preemergence, scale 0 (no effect) to 100 (complete control)
How it was run: as §2

crabgrass = assay: Test C pre-/postemergence test; type: in vivo, Digitaria sanguinalis
How it was run: as §2

Goosegrass = assay: Test C pre-/postemergence test; type: in vivo, Eleusin indica
How it was run: as §2

lambsquarters = assay: Test C pre-/postemergence test; type: in vivo, Chenopodium album
How it was run: as §2

eastern black nightshade = assay: Test C pre-/postemergence test; type: in vivo, Solanum ptycanthum
How it was run: as §2

pigweed = assay: Test C pre-/postemergence test; type: in vivo, Amaranthus retroflexus
How it was run: as §2

[3] = test system: common (oilseed) sunflower; assay: Test C pre-/postemergence test; type: in vivo, Helianthus annuus; details: for Sunflower plant response rating: preemergence, scale 0 (no effect) to 100 (complete control)
How it was run: as §2

rice = assay: Test C flooded paddy test; type: in vivo, Oryza sativa; details: Flood
How it was run: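 Ratings were visual and made relative to untreated controls after 13 to 15 greenhouse days.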

[4] = Postemergence, 125 g ai/ha, 0 is no effect, 100 is complete control
[5] = Postemergence, 500 g ai/ha, 0 is no effect, 100 is complete control
[6] = Preemergence, 125 g ai/ha, 0 no effect, 100 complete control
[7] = Preemergence, 500 g ai/ha, 0 to 100 scale where 0 is no effect and 100 is complete control
[8] = 31 g ai/ha, Preemergence, scale 0 to 100
[9] = 62 g ai/ha, preemergence, scale 0 (no effect) to 100 (complete control)
[10] = preemergence, 125 g ai/ha, scale 0 (no effect) to 100 (complete control)

Compound: Cn1nc(C(F)(F)F)c(CS(=O)(=O)c2cccc[n+]2[O-])c1OC(F)F [Compound 4]
- Barnyardgrass plant response rating (barnyardgrass; [4]): 70
- Barnyardgrass plant response rating (barnyardgrass; [5]): 80
- Barnyardgrass plant response rating (barnyardgrass; [6]): 70
- Plant response rating, Barnyardgrass (barnyardgrass; [7]): 100
- Foxtail, Giant plant response rating (giant foxtail; [4]): 80
- Foxtail, Giant plant response rating (giant foxtail; [5]): 90
- Foxtail, Giant plant response rating (giant foxtail; [6]): 100
- Plant response rating, Foxtail, Giant (giant foxtail; [7]): 100
- Morningglory plant response rating (morningglory; [4]): 60
- Morningglory plant response rating (morningglory; [5]): 70
- Morningglory plant response rating (morningglory; [6]): 80
- Plant response rating, Morningglory (morningglory; [7]): 90
- Pigweed plant response rating (redroot pigweed; [4]): 70
- Pigweed plant response rating (redroot pigweed; [5]): 80
- Pigweed plant response rating (redroot pigweed; [6]): 100
- Plant response rating, Pigweed (redroot pigweed; [7]): 100
- Wheat plant response rating (wheat [1]; [4]): 60
- Wheat plant response rating (wheat [1]; [5]): 60
- Wheat plant response rating (wheat [1]; [6]): 50
- Plant response rating, Wheat (wheat [1]; [7]): 80
- Corn plant response rating (corn; [4]): 30
- Corn plant response rating (corn; [5]): 60
- Corn plant response rating (corn; [6]): 20
- Plant response rating, Corn (corn; [7]): 80
- Wheat plant response rating (wheat [2]; 62 g ai/ha): 20
- Plant response rating (0 to 100), Wheat (wheat [2]; Preemergence, 250 g ai/ha): 50
- Wheat plant response rating (wheat [2]; 125 g ai/ha): 20
- Bermudagrass plant response rating (bermudagrass; [8]): 100
- Bermudagrass plant response rating (bermudagrass; [9]): 100
- Plant response rating (0 to 100), Bermudagrass (bermudagrass; Preemergence, 250 g ai/ha): 100
- Bermudagrass plant response rating (bermudagrass; [10]): 100
- Surinam Grass plant response rating (Surinam grass; 62 g ai/ha): 100
- Plant response rating (0 to 100), Surinam Grass (Surinam grass; Preemergence, 250 g ai/ha): 100
- Surinam Grass plant response rating (Surinam grass; 125 g ai/ha): 100
- Crabgrass, Large plant response rating (crabgrass; [8]): 98
- Crabgrass, Large plant response rating (crabgrass; [9]): 100
- Plant response rating (0 to 100), Crabgrass, Large (crabgrass; Preemergence, 250 g ai/ha): 100
- Crabgrass, Large plant response rating (crabgrass; [10]): 100
- Goosegrass plant response rating (Goosegrass; [8]): 100
- Goosegrass plant response rating (Goosegrass; [9]): 100
- Plant response rating (0 to 100), Goosegrass (Goosegrass; Preemergence, 250 g ai/ha): 100
- Goosegrass plant response rating (Goosegrass; [10]): 100
- Lambsquarters plant response rating (lambsquarters; [8]): 0
- Lambsquarters plant response rating (lambsquarters; [9]): 50
- Plant response rating (0 to 100), Lambsquarters (lambsquarters; Preemergence, 250 g ai/ha): 100
- Lambsquarters plant response rating (lambsquarters; [10]): 80
- Nightshade plant response rating (eastern black nightshade; [8]): 90
- Nightshade plant response rating (eastern black nightshade; [9]): 100
- Plant response rating (0 to 100), Nightshade (eastern black nightshade; Preemergence, 250 g ai/ha): 100
- Nightshade plant response rating (eastern black nightshade; [10]): 100
- Pigweed plant response rating (pigweed; [8]): 100
- Pigweed plant response rating (pigweed; [9]): 100
- Plant response rating (0 to 100), Pigweed (pigweed; Preemergence, 250 g ai/ha): 100
- Pigweed plant response rating (pigweed; [10]): 100
- Sunflower plant response rating ([3]; 62 g ai/ha): 10
- Plant response rating (0 to 100), Sunflower ([3]; Preemergence, 250 g ai/ha): 80
- Sunflower plant response rating ([3]; 125 g ai/ha): 15
- Plant response rating, Rice (rice; 31 g ai/ha, scale 0 to 100 (0 no effect, 100 complete control)): 10
- Plant response rating, Rice (rice; 62 g ai/ha, scale 0 to 100, 0 no effect, 100 complete control, 13 to 15 days): 30
- Plant response rating, Rice (rice; 125 g ai/ha, scale 0 to 100, 0 no effect, 100 complete control, 13 to 15 days): 70
- Plant response rating, Rice (rice; 250 g ai/ha, scale 0 to 100 (0 no effect, 100 complete control)): 80
